Source: paper PMC10958501, “4-Oxypiperidine Ethers as Multiple Targeting Ligands at Histamine H3 Receptors and Cholinesterases” (ACS Chemical Neuroscience, 2024)

Assays:
gpH3R = target: T1, gpH3R (Cavia porcellus, UniProt Q9JI35); assay: Ex vivo gpH3R screening on isolated guinea pig ileum electrically stimulated to contraction
T1 construct: isolated guinea pig ileum electrically stimulated to contraction; from tissue; host or cells: distal ileum of male guinea pigs
Experimental: All newly synthesized compounds were evaluated ex vivo as H3R antagonists/inverse agonists on guinea pig ileum (gpH3R) stimulated electrically for contraction.[47]
The compounds were tested against H3R by an ex vivo assay using isolated guinea pig ileum electrically stimulated to contraction, according to Vollinga et al.[47] The pA2-values were calculated according to Arunlakshana and Schild.[59] The radioligand-displacement assay was performed in membrane fractions of HEK-293 cells stably expressing hH3R. Cell cultivation and membrane preparation were performed according to Kottke et al.[48] The Ki values were calculated from the IC50 values using the Cheng–Prusoff equation.[60] The statistical calculations were performed on −log(Ki). […] The inhibitory activities toward AChE and BuChE of novel ADS compounds were assessed in a spectrophotometric Ellman’s assay using electric eel AChE (eeAChE) and equine BuChE (eqBuChE).[57] Intracellular cAMP accumulation was measured with a homogeneous TR-FRET immunoassay using the LANCE Ultra cAMP kit (PerkinElmer) and HEK293 cells stably expressing the human histamine H3 receptor.[61] A more detailed description of the biological methods is presented in the Supporting Information.
3. Pharmacological assay results.
3.1. Ex vivo assay for histamine H 3R receptor antagonists on guinea pig ileum.
Male guinea pigs, weighing 300-400 g were euthanized by a blow to the neck. Following this, a 20-30 cm length of the distal ileum, apart from the terminal 5 cm was rapidly removed and […]
USA) (1·10 -6 mol/L). The intraluminal content was rinsed and the isolated intestine was cut into 1.5-2 cm segments. The preparations were mounted between two platinum electrodes […]
and indomethacin (3·10 -7 mol/L).
CO2 mixture and maintained at 37 °C under a constant load of 1.0 g (Hugo Sachs Hebel-Messvorsatz (Tl-2)/HF-modem; Hugo Sachs Elektronik, Hugstetten, Germany) connected to a pen recorder (Kipp & Zonen BD41, Delft, Holland). During an equilibration period of 60 min, the Krebs buffer was changed every 10 min. The preparations were then continuously stimulated at 15-20 V at a frequency of 0.1 Hz for a duration of 0.5 ms, with rectangular-wave electrical pulses (Grass Stimulator S-88; Grass Instruments Co., Quincy, Massachusetts, […]
USA). […] Five minutes before (R)-(−)-α- […]
methylhistamine (RAMH) (Toronto Research Chemicals Inc., North York, Canada), administration, pyrilamine (Sigma-Aldrich, St. Louis, MO, USA) (1·10-5 mol/L concentration in organ bath) was added. The first cumulative concentration-response curve was determined […]
second to fourth curve was measured against increasing antagonist concentration (incubation time 20 min). The pA2-values were calculated according to Arunlakshana and Schild 5.
Statistical analysis was carried out with the Student’s t-test. In all tests, a p<0.05 was […]
considered statistically significant. The pA2 values were compared with the affinity of thioperamide (Sigma-Aldrich, St. Louis, MO, USA). […]

hH3R = target: T2, hH3R (Homo sapiens, UniProt Q9Y5N1); assay: hH3R radioligand displacement assay in membrane fractions of HEK-293 cells; type: binding; conditions: [3H]Nα-methylhistamine displacement, HEK-293 membranes; 95% CI in brackets
T2 construct: expressed in transfected cells; membrane fractions
Experimental: The compounds were tested against H3R by an ex vivo assay using isolated guinea pig ileum electrically stimulated to contraction, according to Vollinga et al.[47] The pA2-values were calculated according to Arunlakshana and Schild.[59] The radioligand-displacement assay was performed in membrane fractions of HEK-293 cells stably expressing hH3R. Cell cultivation and membrane preparation were performed according to Kottke et al.[48] The Ki values were calculated from the IC50 values using the Cheng–Prusoff equation.[60] The statistical calculations were performed on −log(Ki). The mean values and 95% confidence intervals were transformed to nanomolar concentrations. The inhibitory activities toward AChE and BuChE of novel ADS compounds were assessed in a spectrophotometric Ellman’s assay using electric eel AChE (eeAChE) and equine BuChE (eqBuChE).[57] Intracellular cAMP accumulation was measured with a homogeneous TR-FRET immunoassay using the LANCE Ultra cAMP kit (PerkinElmer) and HEK293 cells stably expressing the human histamine H3 receptor.[61] A more detailed description of the biological methods is presented in the Supporting Information. […]
considered statistically significant. The pA2 values were compared with the affinity of thioperamide (Sigma-Aldrich, St. Louis, MO, USA).
3.2. hH 3R radioligand displacement binding assay.
The radioligand displacement binding assay was performed in membrane fractions of HEK-293 cells stably expressing hH3R. Cell cultivation and membrane preparation was performed according to Kottke et al 6. For the radioligand displacement assay, radioactively labeled […]
assay volume was set to 200 µL. The compounds were tested in several appropriate concentrations between 100 µM and 0.1 nM. Pipetting was partly done by Freedom Evo® (Tecan). Pitolisant was used to determine non-specific binding at a concentration of 10 µM.
The membrane fraction (20 µg/well), test compounds, and radiolabeled ligand were incubated for 90 minutes at 25 °C while shaking. The bound radioligand was separated from the free radioligand by filtration through GF/B filters pre-treated with 0.3 % (m/v) polyethyleneimine using a cell harvester. Radioactivity was determined by liquid scintillation counting using a MicroBeta® Trilux (Perkin Elmer). The data was obtained in duplicates in at least three independent experiments. Non-specific binding was subtracted from the raw data to calculate specific binding values. The evaluation was performed with GraphPad Prism 6.1 (San Diego, CA, USA) using non-linear regression (one-site competition with a logarithmic scale). The Ki values were calculated from the IC50 values using the Cheng-Prusoff equation 7. The statistical calculations were performed on –log(Ki). […]

eeAChE = target: T3, eeAChE (Electrophorus electricus, UniProt O42275); assay: biochemical
T3 construct: purchased Sigma–Aldrich (Steinheim, Germany)
T3 sequence (O42275 24-633): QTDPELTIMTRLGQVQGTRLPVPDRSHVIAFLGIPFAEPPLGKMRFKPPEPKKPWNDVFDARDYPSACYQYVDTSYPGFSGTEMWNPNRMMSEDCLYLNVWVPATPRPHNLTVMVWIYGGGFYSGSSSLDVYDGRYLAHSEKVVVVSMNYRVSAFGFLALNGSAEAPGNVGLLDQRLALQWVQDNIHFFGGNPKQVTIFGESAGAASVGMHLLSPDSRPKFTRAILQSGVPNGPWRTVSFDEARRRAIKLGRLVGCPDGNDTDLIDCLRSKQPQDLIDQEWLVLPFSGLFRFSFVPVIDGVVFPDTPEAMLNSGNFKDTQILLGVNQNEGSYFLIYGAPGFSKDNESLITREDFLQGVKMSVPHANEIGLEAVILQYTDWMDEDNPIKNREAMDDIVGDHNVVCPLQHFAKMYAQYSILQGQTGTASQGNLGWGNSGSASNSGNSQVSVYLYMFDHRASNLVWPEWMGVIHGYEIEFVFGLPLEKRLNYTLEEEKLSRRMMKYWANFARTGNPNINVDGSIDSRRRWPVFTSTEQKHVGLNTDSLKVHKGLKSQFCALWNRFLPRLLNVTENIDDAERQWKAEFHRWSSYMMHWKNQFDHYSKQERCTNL

T2 sequence (Q9Y5N1 whole entry): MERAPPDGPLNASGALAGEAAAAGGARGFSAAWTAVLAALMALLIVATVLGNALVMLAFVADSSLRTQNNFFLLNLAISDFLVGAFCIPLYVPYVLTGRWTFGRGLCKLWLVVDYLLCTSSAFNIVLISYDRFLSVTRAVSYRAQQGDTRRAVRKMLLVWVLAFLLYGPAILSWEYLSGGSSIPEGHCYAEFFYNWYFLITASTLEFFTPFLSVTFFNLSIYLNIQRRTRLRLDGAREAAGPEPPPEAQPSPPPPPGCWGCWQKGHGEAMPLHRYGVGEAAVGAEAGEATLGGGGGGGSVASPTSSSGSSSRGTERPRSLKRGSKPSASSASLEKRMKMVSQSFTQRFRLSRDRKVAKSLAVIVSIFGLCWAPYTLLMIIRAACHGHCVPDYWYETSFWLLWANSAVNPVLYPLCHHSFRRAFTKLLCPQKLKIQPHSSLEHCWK
T1 sequence (Q9JI35 whole entry): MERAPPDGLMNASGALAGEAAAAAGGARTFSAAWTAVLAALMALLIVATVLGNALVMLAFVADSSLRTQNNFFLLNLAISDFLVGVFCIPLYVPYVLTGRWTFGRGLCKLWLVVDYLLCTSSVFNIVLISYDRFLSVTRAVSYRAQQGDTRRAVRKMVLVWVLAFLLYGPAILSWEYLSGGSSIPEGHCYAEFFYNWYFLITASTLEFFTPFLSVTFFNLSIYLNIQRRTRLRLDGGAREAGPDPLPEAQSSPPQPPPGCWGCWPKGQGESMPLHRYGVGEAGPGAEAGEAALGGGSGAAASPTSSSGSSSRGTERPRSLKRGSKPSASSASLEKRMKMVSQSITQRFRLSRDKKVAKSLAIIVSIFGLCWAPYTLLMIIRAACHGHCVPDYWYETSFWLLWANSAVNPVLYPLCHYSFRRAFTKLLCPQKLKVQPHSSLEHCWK

**Q.** How did the Kb (gpH3R) turn out when `CCCN(C)Cc1ccc2cc(COC3CCN(Cc4ccccc4)CC3)ccc2c1` [ADS031, N-((6-(((1-Benzylpiperidin-4-yl)oxy)methyl)naphthalen-2-yl)methyl)-N-methylpropan-1-amine] was run?
**A.** Its Kb is 0.0288 µM.

**Q.** What about the Ki (hH3R) of the same compound?
**A.** The Ki was 12.5 nM.

**Q.** What about the inhibition at 10 µM (eeAChE; read-out: eeAChE % inh. (10μM) ± SD) of the same compound?
**A.** Its inhibition at 10 µM is 84.2 ± 0.6%.

**Q.** What about the IC50 (eeAChE; read-out: eeAChE IC50 (μM) ± sem) of the same compound?
**A.** The IC50 was 1.54 ± 0.038 µM.
